pKd: −log10 of the molar value. Like-named read-outs stand apart in the source and are kept apart here. One block for each compound: values may come before it. *1 amine or outer side, *2 acyl side, *3 side chain or, on linkers, in order; H or OH if unused. Where a SMILES comes first, the peptide text is derived from it. Bridges are numbered along the chain shown (N, C = ends). Side-chain parts run from the residue outwards. [ ]: non-standard residue; d: D form. The star is where a group is joined. X2 = O=C(O)c1cc(C(=O)*)ccc1-c1c2ccc(=O)cc-2oc2cc(O)ccc12; PEG12 = NCCOCCOCCOCCOCCOCCOCCOCCOCCOCCOCCOCCOCCC(=O)O; X5 = O=C([C@H](Cc1cn(CCO)c2ccccc12)N[*:1])[*:2]; NMePhe(3-Cl) = CN[C@@H](Cc1cccc(Cl)c1)C(=O)O; NMeW = CN[C@@H](Cc1c[nH]c2ccccc12)C(=O)O; NMeY = CN[C@@H](Cc1ccc(O)cc1)C(=O)O; NMeF = CN[C@@H](Cc1ccccc1)C(=O)O; Piperazinyl(4-Me) = CN1CCN(*)CC1; Aad = N[C@@H](CCCC(=O)O)C(=O)O; PEG4 = NCCOCCOCCOCCOCCC(=O)O; hLys = NCCCCC[C@H](N)C(=O)O; Aib = CC(C)(N)C(=O)O; CO = O=C([*:1])[*:2]
Biological target: transferrin receptor (hTfR) (Homo sapiens, UniProt P02786)
Sequence (P02786 whole entry): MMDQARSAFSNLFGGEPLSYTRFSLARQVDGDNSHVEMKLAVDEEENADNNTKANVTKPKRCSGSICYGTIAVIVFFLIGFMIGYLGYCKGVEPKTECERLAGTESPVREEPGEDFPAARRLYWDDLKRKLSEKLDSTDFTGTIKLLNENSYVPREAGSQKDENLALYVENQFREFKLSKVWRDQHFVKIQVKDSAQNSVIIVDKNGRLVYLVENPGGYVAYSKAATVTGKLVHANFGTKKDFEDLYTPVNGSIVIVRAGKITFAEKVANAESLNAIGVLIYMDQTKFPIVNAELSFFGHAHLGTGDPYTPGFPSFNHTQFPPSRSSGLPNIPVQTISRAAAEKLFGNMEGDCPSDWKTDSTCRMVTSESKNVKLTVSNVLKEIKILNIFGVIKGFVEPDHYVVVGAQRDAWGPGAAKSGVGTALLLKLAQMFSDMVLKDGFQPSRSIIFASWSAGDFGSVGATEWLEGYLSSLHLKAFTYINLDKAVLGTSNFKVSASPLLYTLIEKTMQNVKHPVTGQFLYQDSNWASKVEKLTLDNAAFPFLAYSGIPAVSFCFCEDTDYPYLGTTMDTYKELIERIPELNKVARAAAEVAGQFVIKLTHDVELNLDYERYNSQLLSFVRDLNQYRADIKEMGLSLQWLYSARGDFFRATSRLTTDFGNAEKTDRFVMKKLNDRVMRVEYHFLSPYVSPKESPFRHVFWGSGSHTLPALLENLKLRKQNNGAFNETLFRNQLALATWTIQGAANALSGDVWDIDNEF
Test: Intermolecular interaction evaluation test between transferrin receptor (hTfR) and peptide by surface plasmon resonance (SPR)
Format: binding
Summary of the method: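 hTfR captured on Ni-NTA chip then amine-coupled; peptides run single-cycle kinetics at 5–100 nM in 10 mM HEPES pH 8.0, 150 mM NaCl, 0.05% Tween 20, 0.1% BSA, 1.0% DMSO. KD from least-squares curve fitting of sensorgrams.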

[1] = surface plasmon resonance, peptide vs hTfR, read-out: KD value for hTfR by SPR (class symbol)
[2] = binding to hTfR by SPR, Table 2 peptides, read-out: KD value (SPR) class
[3] = surface plasmon resonance, hTfR, read-out: KD value for hTfR by SPR (class symbol)
[4] = SPR, hTfR, class symbols A-D, read-out: KD (column without head, continuation of the table series)

- pKd (SPR, peptides, linker-added peptides and FITC conjugates, Patent ID 203-230, read-out: KD): 7.00 to 9.00
SMILES: CC[C@H](C)[C@@H]1NC(=O)[C@H](Cc2ccc(OC)cc2)NC(=O)[C@H](Cc2ccc(O)cc2)NC(=O)[C@H](CC(N)=O)NC(=O)[C@H](Cc2c[nH]c3ccccc23)N(C)C(=O)[C@H](C(C)C)NC(=O)[C@H](Cc2cccc(Cl)c2)N(C)C(=O)[C@H](C(C)C)NC(=O)[C@H](CCC(=O)O)NC(=O)CSC[C@@H](C(N)=O)NC(=O)[C@H](Cc2ccc(O)cc2)N(C)C(=O)[C@H](Cc2ccccc2)NC(=O)[C@H](CCCNC(=N)N)NC(=O)[C@H](CCCNC(=N)N)NC(=O)[C@H]([C@@H](C)CC)NC1=O [compound 217]

- pKd (surface plasmon resonance, peptide vs hTfR, read-out: KD value, hTfR binding by SPR (class symbol)): 6.00 to 7.00
SMILES: CC[C@H](C)[C@@H]1NC(=O)[C@H](Cc2ccc(OC)cc2)NC(=O)[C@H](Cc2ccc(O)cc2)NC(=O)[C@H](CC(N)=O)NC(=O)[C@H](Cc2cn(CCO)c3ccccc23)NC(=O)[C@H](C(C)C)NC(=O)[C@H](Cc2cccc(Cl)c2)N(C)C(=O)[C@H](C(C)C)NC(=O)[C@H](C)NC(=O)CSC[C@@H](C(N)=O)NC(=O)[C@H](Cc2ccc(O)cc2)N(C)C(=O)[C@H](Cc2ccccc2)NC(=O)[C@@H](CCCNC(=N)N)NC(=O)C(C)(C)NC(=O)[C@H]([C@@H](C)CC)NC1=O [compound 305] ({CH2CO}-AV[NMePhe(3-Cl)]V[X5]NYY(Me)II[Aib][dR]F[NMeY]C-NH2; thioether N-15)

- pKd [2]: 7.00 to 9.00
SMILES: CC[C@H](C)[C@@H]1NC(=O)[C@H](C2CCCCC2)NC(=O)[C@H](Cc2ccc(O)cc2)NC(=O)[C@H](Cc2ccc(O)cc2)NC(=O)[C@H](CC(N)=O)NC(=O)[C@H](Cc2c[nH]c3ccccc23)NC(=O)[C@H](C(C)C)NC(=O)[C@H](Cc2ccccc2)N(C)C(=O)[C@H](C(C)C)NC(=O)[C@H](C)NC(=O)CSC[C@@H](C(N)=O)NC(=O)[C@H](Cc2ccc(O)cc2)N(C)C(=O)[C@H](Cc2ccc(O)cc2)NC(=O)[C@H](CCCNC(=N)N)NC(=O)[C@H](CCCNC(=N)N)NC1=O [compound 282]

- pKd [3]: 7.00 to 9.00
SMILES: CC[C@H](C)[C@@H]1NC(=O)[C@H](Cc2ccc(OC)cc2)NC(=O)[C@H](Cc2ccc(O)cc2)NC(=O)[C@H](CC(N)=O)NC(=O)[C@H](Cc2c[nH]c3ccccc23)N(C)C(=O)[C@H](C(C)C)NC(=O)[C@H](Cc2cccc(Cl)c2)N(C)C(=O)[C@H](C(C)C)NC(=O)[C@H](C)NC(=O)CSC[C@@H](C(N)=O)NC(=O)[C@H](Cc2ccc(O)cc2)N(C)C(=O)[C@H](CCC(=O)NCCCC[C@@H](NC)C(=O)O)NC(=O)[C@@H](CCCNC(=N)N)NC(=O)[C@H](CCCNC(=N)N)NC(=O)[C@H]([C@@H](C)CC)NC1=O [compound 390]

- pKd [4]: 6.00 to 7.00
SMILES: CC[C@H](C)[C@@H]1NC(=O)[C@H](Cc2ccc(OCCN)cc2)NC(=O)[C@H](Cc2ccc(O)cc2)NC(=O)[C@H](CC(N)=O)NC(=O)[C@H](Cc2c[nH]c3ccccc23)NC(=O)[C@H](C(C)C)NC(=O)[C@H](Cc2ccccc2)N(C)C(=O)[C@H](C(C)C)NC(=O)[C@H](C)NC(=O)CSC[C@@H](C(N)=O)NC(=O)[C@H](Cc2ccc(O)cc2)N(C)C(=O)[C@H](Cc2ccccc2)NC(=O)[C@H](CCCNC(=N)N)NC(=O)[C@H](CCCNC(=N)N)NC(=O)[C@H]([C@@H](C)CC)NC1=O [compound 522]

- pKd [4]: 7.00 to 9.00
SMILES: CC[C@H](C)[C@@H]1NC(=O)[C@H](Cc2ccc(O)cc2)NC(=O)[C@H](Cc2ccc(O)cc2)NC(=O)[C@H](CC(N)=O)NC(=O)[C@H](Cc2c[nH]c3ccccc23)NC(=O)[C@H](C(C)C)NC(=O)[C@H](Cc2ccccc2)N(C)C(=O)[C@H](C(C)C)NC(=O)[C@H](C)NC(=O)CSC[C@@H](C(=O)NCC(=O)N[C@@H](CCCCN)C(N)=O)NC(=O)[C@H](Cc2ccc(O)cc2)N(C)C(=O)[C@H](Cc2ccc(O)cc2)NC(=O)[C@H](CCCNC(=N)N)NC(=O)[C@H](CCCNC(=N)N)NC(=O)[C@H]([C@@H](C)CC)NC1=O [compound 525]

Continued, compound first:

SMILES: CC[C@H](C)[C@@H]1NC(=O)[C@H](Cc2ccc(O)cc2)NC(=O)[C@H](Cc2ccc(O)cc2)NC(=O)[C@H](CC(N)=O)NC(=O)[C@H](Cc2c[nH]c3ccccc23)N(C)C(=O)[C@H](C(C)C)NC(=O)[C@H](Cc2cccc(Cl)c2)N(C)C(=O)[C@@H]2CCC(=O)N3CCC[C@@H]3C(=O)NCCCC[C@H](NC(=O)[C@H]([C@@H](C)CC)NC1=O)C(=O)N[C@@H](CCCNC(=N)N)C(=O)N[C@@H](Cc1ccc(O)cc1)C(=O)N(C)[C@@H](Cc1ccc(O)cc1)C(=O)N[C@H](C(N)=O)CSCC(=O)N[C@@H](C)C(=O)N2 [compound 416]
- pKd [1]: 7.00 to 9.00

SMILES: CC[C@H](C)[C@@H]1NC(=O)[C@H](Cc2ccc(O)cc2)NC(=O)[C@H](Cc2ccc(O)cc2)NC(=O)[C@H](CC(N)=O)NC(=O)[C@H](Cc2c[nH]c3ccccc23)NC(=O)[C@H](C(C)C)NC(=O)[C@H](Cc2ccccc2)NC(=O)[C@H](C(C)C)NC(=O)[C@H](C)NC(=O)CSC[C@@H](C(=O)NCCOCCOCCOCCOCCOCCOCCOCCOCCOCCOCCOCCOCCC(=O)N[C@@H](CCCCNC(=O)c2ccc(-c3c4ccc(=O)cc-4oc4cc(O)ccc34)c(C(=O)O)c2)C(N)=O)NC(=O)[C@H](CC(N)=O)NC(=O)[C@@H]2CCCN2C(=O)[C@H](C(C)C)NC(=O)[C@H](CC(N)=O)NC(=O)[C@H](CCCNC(=N)N)NC(=O)CNC(=O)[C@H](C(C)C)NC1=O [compound 152] ({CH2CO}-AVFVWNYYIVGRNVPNC[PEG12]K(X2)-NH2; thioether N-17)
- pKd (SPR, linker and payload (FITC, VivoTag) conjugates, read-out: KD): > 9.00

SMILES: CC[C@H](C)[C@@H]1NC(=O)[C@H](Cc2ccc(O)cc2)NC(=O)[C@H](Cc2ccc(O)cc2)NC(=O)[C@H](CC(N)=O)NC(=O)[C@H](Cc2c[nH]c3ccccc23)NC(=O)[C@H](C(C)C)NC(=O)[C@H](Cc2ccccc2)N(C)C(=O)[C@H](C(C)C)NC(=O)[C@H](C)NC(=O)CSC[C@@H](C(=O)NCCOCCOCCOCCOCCC(=O)NCCOCCOCCOCCOCCC(=O)NCCOCCOCCOCCOCCC(=O)N[C@@H](CCCCNC(=O)C2CCC(CN3C(=O)C=CC3=O)CC2)C(N)=O)NC(=O)[C@H](Cc2ccc(O)cc2)N(C)C(=O)[C@H](Cc2ccc(O)cc2)NC(=O)[C@H](CCCNC(=N)N)NC(=O)[C@H](CCCNC(=N)N)NC(=O)[C@H]([C@@H](C)CC)NC1=O (some centres unmarked) [compound 182]
- pKd (hTfR binding by SPR, hTfR No. 894 variant peptides, linker-added peptides and payload conjugates (Table 2), read-out: KD value obtained from the SPR measurement): 7.00 to 9.00

SMILES: CC[C@H](C)[C@@H]1NC(=O)[C@H](Cc2ccc(OC)cc2)NC(=O)[C@H](Cc2ccc(O)cc2)NC(=O)[C@H](CC(N)=O)NC(=O)[C@H](Cc2c[nH]c3ccccc23)N(C)C(=O)[C@H](C(C)C)NC(=O)[C@H](Cc2cccc(Cl)c2)N(C)C(=O)[C@H](CCC(=O)O)NC(=O)[C@H](C)NC(=O)CSC[C@@H](C(=O)NCC(=O)NCC(=O)NCC(=O)NCC(=O)N[C@@H](CO)C(=O)N[C@@H](CO)C(=O)N[C@@H](CS)C(N)=O)NC(=O)[C@H](Cc2ccc(O)cc2)N(C)C(=O)[C@H](Cc2ccccc2)NC(=O)[C@H](CCC(=O)O)NC(=O)[C@H](CCCNC(=N)N)NC(=O)[C@H]([C@@H](C)CC)NC1=O [compound 231]
- pKd [2]: 7.00 to 9.00

SMILES: CC[C@H](C)[C@@H]1NC(=O)[C@H](Cc2ccc(OC)cc2)NC(=O)[C@H](Cc2ccc(O)cc2)NC(=O)[C@H](CC(N)=O)NC(=O)[C@H](Cc2c[nH]c3ccccc23)N(C)C(=O)[C@H](C(C)C)NC(=O)[C@H](Cc2cccc(Cl)c2)N(C)C(=O)[C@@H]2CCCC(=O)NCCCCC[C@H](NC(=O)[C@H]([C@@H](C)CC)NC1=O)C(=O)N[C@H](CCCNC(=N)N)C(=O)N[C@@H](Cc1ccccc1)C(=O)N(C)[C@@H](Cc1ccc(O)cc1)C(=O)N[C@H](C(N)=O)CSCC(=O)N[C@@H](C)C(=O)N2 [compound 418] ({CH2CO}-A[Aad][NMePhe(3-Cl)]V[NMeW]NYY(Me)II[hLys][dR]F[NMeY]C-NH2; lactam 2-11 (inferred); thioether N-15 (inferred))
- pKd [1]: 7.00 to 9.00

SMILES: CC[C@H](C)[C@@H]1NC(=O)[C@H](Cc2ccc(O)cc2)NC(=O)[C@H](Cc2ccc(O)cc2)NC(=O)[C@H](CC(N)=O)NC(=O)[C@H](Cc2ccc(OC)cc2)NC(=O)[C@H](C(C)C)NC(=O)[C@H](Cc2ccccc2)N(C)C(=O)[C@H](C(C)C)NC(=O)[C@H](C)NC(=O)CSC[C@@H](C(=O)NCCOCCOCCOCCOCCOCCOCCOCCOCCOCCOCCOCCOCCC(N)=O)NC(=O)[C@H](Cc2ccc(O)cc2)N(C)C(=O)[C@H](Cc2ccc(O)cc2)NC(=O)[C@H](CCCNC(=N)N)NC(=O)[C@H](CCCNC(=N)N)NC(=O)[C@H]([C@@H](C)CC)NC1=O [compound 118] ({CH2CO}-AV[NMeF]VY(Me)NYYIIRRY[NMeY]C[PEG12]-NH2; thioether N-15)
- pKd (SPR, hTfR No. 894 variants with PEG12c linker (Table 2), read-out: KD): 7.00 to 9.00

SMILES: CC[C@H](C)[C@@H]1NC(=O)[C@H](Cc2ccc(O)cc2)NC(=O)[C@H](Cc2ccc(O)cc2)NC(=O)[C@H](CC(N)=O)NC(=O)[C@H](Cc2c[nH]c3ccccc23)NC(=O)[C@H](C(C)C)NC(=O)[C@H](Cc2ccccc2)N(C)C(=O)[C@H](C(C)C)NC(=O)[C@H](C)NC(=O)CSC[C@@H](C(=O)NCCOCCOCCOCCOCCC(N)=O)NC(=O)[C@H](Cc2ccc(O)cc2)N(C)C(=O)[C@H](Cc2ccc(O)cc2)NC(=O)[C@H](CCCCNC(=O)N2CCN(C)CC2)NC(=O)C(C)(C)NC(=O)[C@H]([C@@H](C)CC)NC1=O [compound 290] ({CH2CO}-AV[NMeF]VWNYYII[Aib]K([CO-Piperazinyl(4-Me)])Y[NMeY]C[PEG4]-NH2; thioether N-15)
- pKd [2]: < 6.00

SMILES: CC[C@H](C)[C@@H]1NC(=O)[C@H](Cc2ccc(OC)cc2)NC(=O)[C@H](Cc2ccc(O)cc2)NC(=O)[C@H](CC(N)=O)NC(=O)[C@H](Cc2c[nH]c3ccccc23)N(C)C(=O)[C@H](C(C)C)NC(=O)[C@H](Cc2cccc(Cl)c2)N(C)C(=O)[C@H](C(C)C)NC(=O)[C@H](C)NC(=O)CSC[C@@H](C(N)=O)NC(=O)[C@H](Cc2ccc(O)cc2)N(C)C(=O)[C@H](Cc2ccccc2)NC(=O)[C@@H](CCCNC(=N)N)NC(=O)[C@H](CCC(=O)NCCOCCOCCOCCOCCOCCOCCOCCOC)NC(=O)[C@H]([C@@H](C)CC)NC1=O [compound 363]
- pKd [3]: 7.00 to 9.00

— patent US20230203098A1, “HUMAN TRANSFERRIN RECEPTOR BINDING PEPTIDE” (priority 2020, published 2023)
